Assay results taken from US20050032783A1, “Use of CGRP antagonists in treatment and prevention of hot flushes in prostate cancer patients” (Boehringer Ingelheim International GmbH, priority 2003, published 2005).

Tested on: increased blood flow through the facial skin caused by endogenous CGRP
Test: Facial skin blood flow increase after trigeminal ganglion stimulation in marmosets (laser Doppler)
Assay type: in vivo
Conditions: anaesthetised marmosets; i.v. 5 min before the 2nd and 3rd stimulation periods; trigeminal ganglion stimulation 10Hz, 2 mA, 2 msec, for 30 sec
Excerpt: The efficacy of the following test substances was characterised by determining the dose administered i.v. which reduces by 50% the increased blood flow through the skin of the face which has been brought about by endogenous CGRP: • (A) =1-[N^2-[3,5-dibromo-N-[[4-(3,4-dihydro-2(1H)-oxoquinazolin-3-yl)-1-piperidinyl]carbonyl]-D-tyrosyl]-L-lysyl]-4-(4-pyridinyl)-piperazine, • (B) =1-[4-amino-3,5-dibromo-N-[[4-(2,3,4,5-tetrahydro-2(1 H)-oxo-1,3-benzodiazepin-3-yl)-1-piperidinyl]carbonyl]-D-phenylalanyl]-4-(1-piperidinyl)-piperidine, • (AC) =(R,S)-1-[4-[4-(3,4-dihydro-2(1H)-oxoquinazolin-3-yl)-1-piperidinyl]-2-[(3,5-dibromo-4-methylphenyl)methyl]-1,4-dioxobutyl]-4-(4-methyl-1-piperazinyl)-piperidine, • (AM) =1-[4-amino-3,5-dibromo-N-[[4-(3,4-dihydro-2(1H)-oxoquinazolin-3-yl)-1-piperidinyl]carbonyl]-D-phenylalanyl]-4-(1-piperidinyl)-piperidine, • (DA =sumatriptan and • (DB) =zolmitriptan. Description of Method:
Marmosets of both sexes (300-400 g) are anaesthetised with pentobarbital (initially with 30 mg/kg, i.p., followed by infusion of 6 mg/kg/h, […].). The body temperature is maintained at 37° C. using a heating plate. Pancurmium is administered as a muscle relaxant (initially 1 mg/kg, 0.5 mg after each hour thereafter). The animal's head is secured in a stereotactical apparatus. After the skin on the head has been opened using a lengthwise incision, a small hole is drilled in the skull and a bipolar electrode (Rhodes SNES 100) is lowered into the trigeminal ganglion.
The petrous bone serves as a guide for placing the electrode (CCX-Digital X-ray apparatus). The position of the electrode in the ganglion is monitored at the end of each experiment. The stimulation parameters are: • 10Hz, 2 mA, 2 msec, for 30 sec.
The blood flow in the micro-vessels of the facial skin is determined by laser Doppler flow measurement using a PeriFlux Laser Doppler System.
The animals are exposed to 2 to 3 stimulation periods at intervals of 30 min in each case. The first stimulation serves as a reference value for the other stimulations. The test substances are administered i.v. 5 min before the 2nd and 3rd stimulation periods.

Row | Structure (SMILES) | 50% dose = i.v. dose which reduces by 50% the increased blood flow through the facial skin caused by endogenous CGRP
1 | Cc1c(Br)cc(C[C@H](CC(=O)N2CCC(N3Cc4ccccc4NC3=O)CC2)C(=O)N2CCC(N3CCN(C)CC3)CC2)cc1Br (racemic) [Substance AC, (R,S)-1-[4-[4-(3,4-dihydro-2(1H)-oxoquinazolin-3-yl)-1-piperidinyl]-2-[(3,5-dibromo-4-methylphenyl)methyl]-1,4-dioxobutyl]-4-(4-methyl-1-piperazinyl)-piperidine] | 0.018 mg/kg
2 | NCCCC[C@H](NC(=O)[C@@H](Cc1cc(Br)c(O)c(Br)c1)NC(=O)N1CCC(N2Cc3ccccc3NC2=O)CC1)C(=O)N1CCN(c2ccncc2)CC1 [Substance A, 1-[N^2-[3,5-dibromo-N-[[4-(3,4-dihydro-2(1H)-oxoquinazolin-3-yl)-1-piperidinyl]carbonyl]-D-tyrosyl]-L-lysyl]-4-(4-pyridinyl)-piperazine] | 0.003 mg/kg
3 | Nc1c(Br)cc(C[C@@H](NC(=O)N2CCC(N3Cc4ccccc4NC3=O)CC2)C(=O)N2CCC(N3CCCCC3)CC2)cc1Br [Substance AM, 1-[4-amino-3,5-dibromo-N-[[4-(3,4-dihydro-2(1H)-oxoquinazolin-3-yl)-1-piperidinyl]carbonyl]-D-phenylalanyl]-4-(1-piperidinyl)-piperidine] | 0.046 mg/kg
4 | Nc1c(Br)cc(C[C@@H](NC(=O)N2CCC(N3CCc4ccccc4NC3=O)CC2)C(=O)N2CCC(N3CCCCC3)CC2)cc1Br [Substance B, 1-[4-amino-3,5-dibromo-N-[[4-(2,3,4,5-tetrahydro-2(1H)-oxo-1,3-benzodiazepin-3-yl)-1-piperidinyl]carbonyl]-D-phenylalanyl]-4-(1-piperidinyl)-piperidine] | 0.042 mg/kg
5 | CNS(=O)(=O)Cc1ccc2[nH]cc(CCN(C)C)c2c1 [Substance DA, sumatriptan, reference compound] | 0.280 mg/kg
6 | CN(C)CCc1c[nH]c2ccc(C[C@H]3COC(=O)N3)cc12 [Substance DB, zolmitriptan, reference compound] | 0.035 mg/kg
